{"source": "patent US9234018B2", "about": "“Compositions and methods for the treatment of VprBP-related cancers” (University of Southern California, priority 2013, dated 2016)", "key": {"[1]": {"target": "SYK (Homo sapiens, UniProt P43405)", "assay": "Kinase selectivity panel", "format": "biochemical"}, "[2]": {"target": "ATR (Homo sapiens, UniProt Q13535)", "assay": "Kinase selectivity panel", "format": "biochemical"}, "[3]": {"test_system": "DU145 tumor xenografts", "assay": "DU145 tumor xenografts in nude mice", "format": "in vivo", "protocol": "All animal experiments were performed according to protocols approved by the Institutional Animal Care and Use Committee. Tumor xenografts were established by subcutaneous injection of 1 3 107 DU145 cells into 8-weekold female nude mice (n=8). At day 5 after injection, the mice bearing DU145 tumor xenografts were treated with twice-weekly i.p. injections of either DMSO or B32B3 at a dose of 5 mg/kg throughout the duration of the experiment. Tumor dimension was measured by calipers twice a week, and tumor mass was calculated as described (Heo, K. et al. (2012) Oncogene 32:2510-2520). The mice were killed by asphyxiation with CO2, and tumors were excised and weighed 25 day after the cell injection. To analyze the H2AT120p, formalin-fixed and paraffin-embedded sections ([…]) from DU145 tumor xenografts were subject to immunohistochemistry. Animal studies were conducted under approved institutional protocols."}, "[4]": {"target": "CDK9 (Homo sapiens, UniProt P50750)", "assay": "Kinase selectivity panel", "format": "biochemical"}, "[5]": {"target": "AKT1 (Homo sapiens, UniProt P31749)", "assay": "Kinase selectivity panel", "format": "biochemical"}, "[6]": {"target": "BCK", "assay": "Kinase selectivity panel", "format": "biochemical, human"}, "[7]": {"target": "PLK1 (Homo sapiens, UniProt P53350)", "assay": "Kinase selectivity panel", "format": "biochemical"}, "[8]": {"assay": "Mouse pharmacokinetics of B32B3", "format": "in vivo", "conditions": "plasma, dose of 5 mg/kg in mice", "protocol": "Mouse pharmacokinetic study was carried out using mice (n=5) that were fasted for 12 h prior to and 2 h after dosing with B32B3 (5 mg/kg). Blood samples were collected from orbital sinus at 10, 30, 60, 120, 240, and 480 min post dose. The plasma was separated from blood samples by centrifugation and analyzed in the Agilent 1200 HPLC system coupled to Agilent 6460A QQQ mass spectrophotometer. The plasma concentration-time data were analyzed by noncompartmental analysis using WinNonlin version 4.1 (Pharsight)."}, "[9]": {"target": "ATM (Homo sapiens, UniProt Q13315)", "sequence (Q13315 whole entry)": "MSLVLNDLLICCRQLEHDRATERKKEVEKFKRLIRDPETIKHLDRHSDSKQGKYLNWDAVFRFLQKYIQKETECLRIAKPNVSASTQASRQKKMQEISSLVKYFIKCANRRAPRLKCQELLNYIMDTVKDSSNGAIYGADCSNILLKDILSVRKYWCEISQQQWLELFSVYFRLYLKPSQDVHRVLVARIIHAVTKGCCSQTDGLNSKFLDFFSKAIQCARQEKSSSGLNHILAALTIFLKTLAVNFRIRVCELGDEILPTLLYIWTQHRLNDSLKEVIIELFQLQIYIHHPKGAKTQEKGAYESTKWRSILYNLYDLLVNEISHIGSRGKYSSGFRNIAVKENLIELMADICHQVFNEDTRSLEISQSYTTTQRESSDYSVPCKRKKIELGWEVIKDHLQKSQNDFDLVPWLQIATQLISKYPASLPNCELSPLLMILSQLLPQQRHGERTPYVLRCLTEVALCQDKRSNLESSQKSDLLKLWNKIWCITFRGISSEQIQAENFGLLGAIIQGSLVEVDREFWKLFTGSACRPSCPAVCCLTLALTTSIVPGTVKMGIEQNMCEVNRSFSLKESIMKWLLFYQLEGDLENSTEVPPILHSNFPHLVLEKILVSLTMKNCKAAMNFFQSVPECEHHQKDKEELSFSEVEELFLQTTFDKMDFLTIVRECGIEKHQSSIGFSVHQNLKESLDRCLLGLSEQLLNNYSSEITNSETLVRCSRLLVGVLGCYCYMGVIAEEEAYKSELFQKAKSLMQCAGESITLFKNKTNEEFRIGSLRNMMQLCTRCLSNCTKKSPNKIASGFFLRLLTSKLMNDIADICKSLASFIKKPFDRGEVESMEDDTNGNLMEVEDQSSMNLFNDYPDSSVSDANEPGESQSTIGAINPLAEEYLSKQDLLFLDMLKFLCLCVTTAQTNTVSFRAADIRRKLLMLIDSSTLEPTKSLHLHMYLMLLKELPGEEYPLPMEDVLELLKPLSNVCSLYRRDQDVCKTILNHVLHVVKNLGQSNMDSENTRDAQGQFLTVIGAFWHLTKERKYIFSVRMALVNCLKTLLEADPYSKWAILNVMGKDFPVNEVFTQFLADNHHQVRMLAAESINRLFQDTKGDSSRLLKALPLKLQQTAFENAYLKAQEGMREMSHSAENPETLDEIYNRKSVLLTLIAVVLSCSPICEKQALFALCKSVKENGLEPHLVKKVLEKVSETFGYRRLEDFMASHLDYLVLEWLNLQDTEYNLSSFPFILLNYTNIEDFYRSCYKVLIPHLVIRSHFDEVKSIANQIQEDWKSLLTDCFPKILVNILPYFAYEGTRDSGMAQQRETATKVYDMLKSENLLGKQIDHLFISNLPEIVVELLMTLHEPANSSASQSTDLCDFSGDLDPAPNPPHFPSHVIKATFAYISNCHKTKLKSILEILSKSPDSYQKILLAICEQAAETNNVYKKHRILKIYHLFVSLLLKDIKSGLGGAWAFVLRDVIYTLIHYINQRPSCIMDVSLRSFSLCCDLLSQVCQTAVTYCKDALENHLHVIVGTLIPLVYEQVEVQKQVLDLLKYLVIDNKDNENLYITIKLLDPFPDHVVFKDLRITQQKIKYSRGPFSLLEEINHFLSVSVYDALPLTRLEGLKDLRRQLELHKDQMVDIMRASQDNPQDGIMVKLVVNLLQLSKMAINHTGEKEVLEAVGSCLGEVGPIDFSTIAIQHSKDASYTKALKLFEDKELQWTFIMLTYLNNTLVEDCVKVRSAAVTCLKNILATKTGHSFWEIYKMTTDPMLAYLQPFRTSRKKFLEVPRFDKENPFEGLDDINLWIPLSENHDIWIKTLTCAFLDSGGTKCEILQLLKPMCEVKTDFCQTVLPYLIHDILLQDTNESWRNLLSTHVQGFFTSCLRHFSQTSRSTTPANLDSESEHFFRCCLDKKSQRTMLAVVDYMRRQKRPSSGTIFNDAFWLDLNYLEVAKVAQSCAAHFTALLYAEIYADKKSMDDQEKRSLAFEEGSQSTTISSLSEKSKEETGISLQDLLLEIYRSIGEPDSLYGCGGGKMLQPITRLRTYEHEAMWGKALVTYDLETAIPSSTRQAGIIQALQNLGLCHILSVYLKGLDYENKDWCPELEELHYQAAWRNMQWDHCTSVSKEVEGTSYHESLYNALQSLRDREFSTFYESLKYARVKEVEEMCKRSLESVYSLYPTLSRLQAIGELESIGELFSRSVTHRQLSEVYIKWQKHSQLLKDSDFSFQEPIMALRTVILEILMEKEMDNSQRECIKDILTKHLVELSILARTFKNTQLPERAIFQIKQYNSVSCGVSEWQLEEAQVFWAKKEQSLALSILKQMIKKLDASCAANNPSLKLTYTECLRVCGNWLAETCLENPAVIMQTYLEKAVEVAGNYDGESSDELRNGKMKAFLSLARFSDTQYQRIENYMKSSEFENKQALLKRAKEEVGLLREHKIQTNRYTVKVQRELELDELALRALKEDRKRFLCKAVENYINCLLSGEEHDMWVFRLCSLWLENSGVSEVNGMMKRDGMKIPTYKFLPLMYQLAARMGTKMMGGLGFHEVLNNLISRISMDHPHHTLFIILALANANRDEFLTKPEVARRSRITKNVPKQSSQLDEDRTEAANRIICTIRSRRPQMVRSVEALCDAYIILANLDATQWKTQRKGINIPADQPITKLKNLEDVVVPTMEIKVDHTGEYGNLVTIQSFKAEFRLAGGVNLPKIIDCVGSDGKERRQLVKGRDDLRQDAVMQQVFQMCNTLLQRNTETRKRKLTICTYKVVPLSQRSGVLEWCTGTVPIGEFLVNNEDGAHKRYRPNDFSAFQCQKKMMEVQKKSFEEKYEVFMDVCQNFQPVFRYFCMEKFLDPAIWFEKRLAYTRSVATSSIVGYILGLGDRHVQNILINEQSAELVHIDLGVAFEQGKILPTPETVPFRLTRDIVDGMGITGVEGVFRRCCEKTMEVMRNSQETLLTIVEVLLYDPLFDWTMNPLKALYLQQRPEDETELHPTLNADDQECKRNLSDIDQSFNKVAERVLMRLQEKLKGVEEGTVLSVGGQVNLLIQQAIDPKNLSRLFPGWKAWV", "assay": "Kinase selectivity panel", "format": "biochemical"}, "[10]": {"target": "PKM2 (Homo sapiens, UniProt P14618)", "assay": "Kinase selectivity panel", "format": "biochemical"}, "[11]": {"target": "BUB1 (Homo sapiens, UniProt O43683)", "assay": "Kinase selectivity panel", "format": "biochemical"}, "[12]": {"target": "CDK18 (Homo sapiens, UniProt Q07002)", "assay": "Kinase selectivity panel", "format": "biochemical"}, "[13]": {"target": "LCK (Homo sapiens, UniProt P06239)", "assay": "Kinase selectivity panel", "format": "biochemical"}, "[14]": {"test_system": "H2AT120p and VprBP at target genes in DU145 cells", "assay": "Chromatin immunoprecipitation (ChIP) at VprBP target genes", "format": "cell-based, human", "conditions": "B32B3 1 mM", "protocol": "Mock-depleted or VprBP-depleted DU145 cells were grown to 70-80% confluence, cross-linked with 1% formaldehyde for 10 min, and processed for ChIP as recently described (Kim, K. et al. (2012) Mol. Cell Biol. 32:783-796). […] All samples were run in triplicate and results were averaged. Sequences of the primers used for quantitative real time PCR (qPCR) are as follows: […]"}, "[15]": {"assay": "B32B3 stability assessment in plasma", "format": "in vitro ADME", "conditions": "mouse plasma", "protocol": "To assess the metabolic stability of B32B3 in mouse, dog, monkey, and human plasma, the compound was spiked into blank plasma to a concentration of 10 μM. At 0, 15, 30, 60, 90, and 120 min time points, a 30 μl aliquot was collected and mixed with 270 μl acetonitrile solution for protein precipitation. After centrifugation, the supernatant was analyzed by LC-MS/MS. In vitro half-life of B32B3 in plasma was calculated using the slope (k) of the log-linear regression from the concentration remaining parent compound versus time. T1/2=−ln 2/k Mouse Pharmacokinetics of B32B3"}, "[16]": {"target": "GSK3β (Homo sapiens, UniProt P49841)", "sequence (P49841 whole entry)": "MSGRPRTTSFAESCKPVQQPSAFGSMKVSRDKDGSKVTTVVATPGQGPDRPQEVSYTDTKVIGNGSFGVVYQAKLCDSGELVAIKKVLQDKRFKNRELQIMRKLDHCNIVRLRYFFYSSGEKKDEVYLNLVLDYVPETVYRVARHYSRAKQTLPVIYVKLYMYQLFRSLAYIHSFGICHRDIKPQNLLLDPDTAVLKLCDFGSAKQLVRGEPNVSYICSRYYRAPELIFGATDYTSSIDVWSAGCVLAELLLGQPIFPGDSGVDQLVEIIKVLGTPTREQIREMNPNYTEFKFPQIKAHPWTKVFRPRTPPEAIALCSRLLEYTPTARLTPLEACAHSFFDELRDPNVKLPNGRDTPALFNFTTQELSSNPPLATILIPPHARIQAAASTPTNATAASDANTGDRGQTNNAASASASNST", "assay": "Kinase selectivity panel", "format": "biochemical"}, "[17]": {"target": "T1, VprBP (Homo sapiens, UniProt Q9Y4B6)", "T1 construct": "His (N); made in house; host or cells: Sf9 insect cells (baculovirus)", "T1 sequence (Q9Y4B6 whole entry)": "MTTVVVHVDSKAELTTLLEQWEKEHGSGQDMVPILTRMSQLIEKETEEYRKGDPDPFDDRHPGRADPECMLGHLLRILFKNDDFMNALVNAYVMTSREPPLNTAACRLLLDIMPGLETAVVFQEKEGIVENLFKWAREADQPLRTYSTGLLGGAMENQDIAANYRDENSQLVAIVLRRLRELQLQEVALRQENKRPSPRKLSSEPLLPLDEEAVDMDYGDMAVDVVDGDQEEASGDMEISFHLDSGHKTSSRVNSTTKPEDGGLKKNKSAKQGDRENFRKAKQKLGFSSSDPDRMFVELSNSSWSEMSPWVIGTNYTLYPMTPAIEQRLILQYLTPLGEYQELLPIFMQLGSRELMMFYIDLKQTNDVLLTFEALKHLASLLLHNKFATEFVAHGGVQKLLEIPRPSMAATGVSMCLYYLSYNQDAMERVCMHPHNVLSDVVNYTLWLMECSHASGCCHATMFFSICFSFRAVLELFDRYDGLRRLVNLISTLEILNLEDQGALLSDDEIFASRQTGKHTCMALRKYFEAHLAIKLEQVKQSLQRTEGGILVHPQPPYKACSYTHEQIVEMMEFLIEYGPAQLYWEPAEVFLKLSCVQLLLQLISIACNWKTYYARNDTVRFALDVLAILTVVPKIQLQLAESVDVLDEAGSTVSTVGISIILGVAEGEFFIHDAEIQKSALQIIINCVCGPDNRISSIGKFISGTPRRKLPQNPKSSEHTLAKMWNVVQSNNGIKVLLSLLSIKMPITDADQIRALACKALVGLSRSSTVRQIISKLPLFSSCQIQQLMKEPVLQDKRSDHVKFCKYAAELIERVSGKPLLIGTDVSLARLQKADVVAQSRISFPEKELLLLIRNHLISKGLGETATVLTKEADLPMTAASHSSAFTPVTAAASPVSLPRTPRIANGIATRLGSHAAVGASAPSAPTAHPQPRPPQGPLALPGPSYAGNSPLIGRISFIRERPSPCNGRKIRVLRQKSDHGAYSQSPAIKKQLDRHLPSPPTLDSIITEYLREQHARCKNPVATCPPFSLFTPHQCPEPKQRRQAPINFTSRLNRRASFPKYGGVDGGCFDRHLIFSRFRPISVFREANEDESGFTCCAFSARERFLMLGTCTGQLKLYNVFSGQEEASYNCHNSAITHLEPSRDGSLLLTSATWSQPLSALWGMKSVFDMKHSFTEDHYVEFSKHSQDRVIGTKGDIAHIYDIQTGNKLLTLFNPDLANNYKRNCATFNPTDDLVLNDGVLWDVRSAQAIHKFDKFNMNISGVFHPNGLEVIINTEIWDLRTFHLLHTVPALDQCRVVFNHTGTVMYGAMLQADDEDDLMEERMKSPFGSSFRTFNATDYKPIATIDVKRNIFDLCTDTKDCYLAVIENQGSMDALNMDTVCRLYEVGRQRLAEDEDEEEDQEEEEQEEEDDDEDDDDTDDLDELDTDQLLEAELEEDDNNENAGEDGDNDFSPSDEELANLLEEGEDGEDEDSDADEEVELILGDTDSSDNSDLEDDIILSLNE", "assay": "In vitro kinase assay, VprBP (recombinant VprBP and H2A; kinase panel)", "format": "biochemical", "set-up": "Inhibition of VprBP and H2AT120p in in vitro kinase assay (library screen): dose or concentration left out as unconfirmed", "protocol": "Recombinant mononucleosomes and nucleosome arrays were reconstituted using recombinant histone octamers as recently described (Jaskelioff, M. et al. (2000) Mol. Cell. Biol. 20:3058-3068; Robinson, P. J. et al. (2008) J. Mol. Biol. 381:816-825). For kinase assays, recombinant VprBP was incubated with free histones ([…]) or reconstituted nucleosomes ([…]) in kinase buffer (50 mM Tris-HCl [pH 7.5], 20 mM EGTA, 10 mM MgCl2, 1 mM DTT, and 1 mM b-glycerophosphate) containing 10 mCi of [g-32P] ATP and 4 mM ATP for 30 min at 30_C. Proteins from each reaction were separated by SDS-PAGE, Coomassie blue stained, dried, and visualized by autoradiography. To create VprBP inhibitors, a collection of 5,000 compounds was screened in the same kinase assays at a final concentration […]. In vitro transcription assays were as described (Kim, K. et al. (2012) Mol. Cell. Biol. 32:783-796), except that G5ML-601 nucleosome arrays (100 ng) and Gal4-VP16 (15 ng) were used for the reactions. Recombinant VprBP (25 or 50 ng) and ATP (10 mM) were added before p300 (20 ng) and AcCoA (10 mM)."}, "[18]": {"target": "DYRK1 (Homo sapiens, UniProt Q13627)", "assay": "Kinase selectivity panel", "format": "biochemical"}, "[19]": {"target": "PKN2 (Homo sapiens, UniProt Q16513)", "assay": "Kinase selectivity panel", "format": "biochemical"}}, "note": "pIC50: −log10 of the molar value."}
{"smiles": "c1ccc2c(CNNc3ncnc4sc5c(c34)CCCC5)c[nH]c2c1", "note": "[B32B3]", "values": [{"measurement": "pIC50", "setting": "[1]", "result": "< 5.00"}, {"measurement": "pIC50", "setting": "[2]", "result": "< 5.00"}, {"measurement": "Tumor growth inhibition", "setting": "[3]; 5 mg/kg i.p. twice a week over 3 weeks, calculated the day after the last treatment", "result": "70%-75%"}, {"measurement": "Body weight loss during treatment", "setting": "[3]; 5 mg/kg i.p. twice weekly", "result": "did not cause any significant weight loss"}, {"measurement": "Tolerability in mice", "setting": "[3]; 5 mg/kg i.p. twice weekly", "result": "well tolerated"}, {"measurement": "Levels of H2AT120p in xenograft tumors (immunohistochemistry)", "setting": "[3]; compared to DMSO-treated controls", "result": "greatly decreased"}, {"measurement": "pIC50", "setting": "[4]", "result": "< 5.00"}, {"measurement": "pIC50", "setting": "[5]", "result": "< 5.00"}, {"measurement": "pIC50", "setting": "[6]", "result": "< 5.00"}, {"measurement": "pIC50", "setting": "[7]", "result": "< 5.00"}, {"measurement": "Cmax", "setting": "[8]", "result": 1000, "unit": "nM"}, {"measurement": "pIC50", "setting": "[9]", "result": "< 5.00"}, {"measurement": "pIC50", "setting": "[10]", "result": "< 5.00"}, {"measurement": "pIC50", "setting": "[11]", "result": "< 5.00"}, {"measurement": "pIC50", "setting": "[12]", "result": "< 5.00"}, {"measurement": "pIC50", "setting": "[13]", "result": "< 5.00"}, {"measurement": "Reduction of H2AT120p at promoter and coding regions of target genes", "setting": "[14]", "result": 70, "unit": "%"}, {"measurement": "VprBP levels at promoter and coding regions of target genes", "setting": "[14]", "result": "did not alter"}, {"measurement": "half-life at 10 μM", "setting": "[15]", "result": "~7", "unit": "h"}, {"measurement": "pIC50", "setting": "[16]", "result": "< 5.00"}, {"measurement": "Selectivity for VprBP over 33 other kinases", "setting": "[17]; panel of 33 human kinases", "result": "greater than 100 fold"}, {"measurement": "pIC50", "setting": "[17]; panel of 33 human kinases, read-out: IC50 for VprBP as stated in text", "result": 6.22}, {"measurement": "Inhibition of VprBP and H2AT120p in in vitro kinase assay (library screen)", "setting": "[17]; recombinant H2A and VprBP, western blotting with H2AT120p antibody", "result": "inhibited VprBP and decreased H2AT120p"}, {"measurement": "pIC50", "setting": "[18]", "result": "< 5.00"}, {"measurement": "pIC50", "setting": "[19]", "result": "< 5.00"}]}
